Experimental findings from ChEMBL document CHEMBL5113471 (Eur J Med Chem, 2022) are described below.

Active and inactive are the calls of the source. The calls are words filed in the database; no cut-off is given here.

Data set [1] deals with Poly [ADP-ribose] polymerase 1 (Homo sapiens, UniProt P09874). Briefly: Inhibition of human recombinant PARP1 in presence of NAD+ by ELISA.
Data set [2] deals with CAPAN-1. Put plainly: Induction of apoptosis in human CAPAN-1 cells assessed as late apoptotic cells at 5 uM incubated for 96 hrs by AnnexinV-FITC/PI staining based flow cytometry (reference value: 8.99%). It counts as functional.
The subject of data set [3] is CAPAN-1. Briefly: Induction of DNA double strand breaks in human CAPAN-1 cells assessed as increase in gamma-H2AX level at 10 uM incubated for 48 hrs by immunofluorescence-based laser confocal microscopy. Format: functional, cell-based.
In data set [4] the test system is CAPAN-1. Briefly: Induction of apoptosis in human CAPAN-1 cells assessed as early apoptotic cells at 5 uM incubated for 96 hrs by AnnexinV-FITC/PI staining based flow cytometry (reference value: 5.08%). Format: functional.
Data set [5] deals with CAPAN-1. Put plainly: Induction of apoptosis in human CAPAN-1 cells assessed as early apoptotic cells at 10 uM incubated for 96 hrs by AnnexinV-FITC/PI staining based flow cytometry (reference value: 5.08%). Format: functional.
Data set [6] deals with CAPAN-1. Put plainly: Induction of apoptosis in human CAPAN-1 cells assessed as late apoptotic cells at 10 uM incubated for 96 hrs by AnnexinV-FITC/PI staining based flow cytometry (reference value: 8.99%). It counts as functional.
The subject of data set [7] is CAPAN-1. Briefly: Induction of DNA double strand breaks in human CAPAN-1 cells assessed as increase in gamma-H2AX level incubated for 48 hrs by western blot analysis. Format: functional, cell-based. To be noted: dose 0.1-1 µM, DDE = dose-dependent effect.
The subject of data set [8] is CAPAN-1. Put plainly: Antiproliferative activity against BRCA2-deficient human CAPAN-1 cells assessed as inhibition of cell proliferation incubated for 7 days by CellTiter-Glo assay. It counts as functional, cell-based. To be noted: CAPAN-1, 168 h.
Data set [9] concerns MDA-MB-436. Briefly: Induction of DNA double strand breaks in human MDA-MB-436 cells assessed as increase in gamma-H2AX level incubated for 48 hrs by western blot analysis. To be noted: dose 0.1-1 µM, DDE = dose-dependent effect. Format: functional, cell-based.
Data set [10] concerns MDA-MB-436. Put plainly: Antiproliferative activity against BRCA1-deficient human MDA-MB-436 cells assessed as inhibition of cell proliferation incubated for 7 days by CCK-8 assay. It counts as functional, cell-based. As to conditions: MDA-MB-436, 168 h.
Data set [11] deals with CAPAN-1. Put plainly: Induction of apoptosis in human CAPAN-1 cells assessed as early apoptotic cells at 1 uM incubated for 96 hrs by AnnexinV-FITC/PI staining based flow cytometry (reference value: 5.08%). Format: functional.
The subject of data set [12] is CAPAN-1. Briefly: Induction of apoptosis in human CAPAN-1 cells assessed as late apoptotic cells at 1 uM incubated for 96 hrs by AnnexinV-FITC/PI staining based flow cytometry (reference value: 8.99%). It counts as functional.
Data set [13] can be described thus: Antiproliferative activity against BRCA1-deficient human UWB1289 cells assessed as inhibition of cell proliferation incubated for 7 days by SRB assay. It counts as functional, cell-based. To be noted: UWB1289, 168 h.
Data set [14] can be described thus: Antiproliferative activity against human UWB1289 cells with restoration of BRCA1 expression assessed as inhibition of cell proliferation incubated for 7 days by SRB assay. Format: functional, cell-based. To be noted: UWB1289, 168 h.
The test system of data set [15] is MDA-MB-436. Briefly: Induction of DNA double strand breaks in human MDA-MB-436 cells assessed as increase in Chk1 phosphorylation at Ser345 residue incubated for 48 hrs by western blot analysis. Format: functional, cell-based. To be noted: dose 0.1-1 µM.
A short description of data set [16]: Cytotoxicity against human IMR-90 cells expressing wild type BRCA-1 assessed as inhibition of cell proliferation incubated for 7 days by SRB assay. Format: toxicity, cell-based.
Data set [17] is described as follows: Cytotoxicity against human WI-38 cells expressing wild type BRCA1 assessed as inhibition of cell proliferation incubated for 7 days by SRB assay. Format: toxicity, cell-based.
Data set [18] relates to CAPAN-1. Put plainly: Induction of DNA double strand breaks in human CAPAN-1 cells assessed as increase in Chk1 phosphorylation at Ser345 residue incubated for 48 hrs by western blot analysis. Format: functional, cell-based. To be noted: dose 0.1-1 µM.
The test system of data set [19] is CAPAN-1. Briefly: Induction of cell cycle arrest at G2/M phase in human CAPAN-1 cells incubated for 48 hrs by propidium iodide staining based flow cytometry. Format: functional. To be noted: dose 1-10 µM, DDE = dose-dependent effect.

Poly [ADP-ribose] polymerase 1, sequence (P09874 whole entry): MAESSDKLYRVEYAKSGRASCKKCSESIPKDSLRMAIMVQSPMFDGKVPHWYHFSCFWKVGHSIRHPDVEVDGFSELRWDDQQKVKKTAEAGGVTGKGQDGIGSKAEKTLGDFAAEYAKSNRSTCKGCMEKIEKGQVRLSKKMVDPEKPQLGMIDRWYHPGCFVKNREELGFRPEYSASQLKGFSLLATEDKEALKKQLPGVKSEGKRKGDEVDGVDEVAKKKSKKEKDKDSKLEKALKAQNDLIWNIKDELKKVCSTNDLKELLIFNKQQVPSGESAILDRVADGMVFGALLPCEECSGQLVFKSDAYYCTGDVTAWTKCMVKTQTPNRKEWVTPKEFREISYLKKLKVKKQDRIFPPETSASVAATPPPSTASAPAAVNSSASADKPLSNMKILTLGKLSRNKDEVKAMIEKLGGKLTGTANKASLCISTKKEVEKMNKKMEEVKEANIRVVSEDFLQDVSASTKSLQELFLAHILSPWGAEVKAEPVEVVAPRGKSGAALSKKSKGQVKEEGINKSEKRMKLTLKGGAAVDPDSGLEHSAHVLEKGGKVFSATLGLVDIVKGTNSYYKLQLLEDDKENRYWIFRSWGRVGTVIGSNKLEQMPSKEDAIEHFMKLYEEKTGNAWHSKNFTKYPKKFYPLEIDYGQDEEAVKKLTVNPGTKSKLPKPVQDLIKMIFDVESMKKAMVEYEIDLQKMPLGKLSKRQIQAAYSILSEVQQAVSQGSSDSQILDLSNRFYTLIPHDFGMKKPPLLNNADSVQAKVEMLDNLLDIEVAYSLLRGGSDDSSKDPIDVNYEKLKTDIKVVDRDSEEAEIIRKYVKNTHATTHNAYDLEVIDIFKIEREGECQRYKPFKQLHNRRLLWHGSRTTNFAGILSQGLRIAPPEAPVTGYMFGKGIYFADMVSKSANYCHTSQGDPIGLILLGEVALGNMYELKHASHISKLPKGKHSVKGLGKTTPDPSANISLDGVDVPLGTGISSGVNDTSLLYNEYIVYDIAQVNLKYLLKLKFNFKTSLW

With `C=C1C(=O)OC2C[C@@]3(C)CCC=C(COC(=O)CCC4CCN(C(=O)c5cc(Cc6n[nH]c(=O)c7ccccc67)ccc5F)CC4)C3=CC12` (some centres not stated), the IC50 in data set [1] is 79.2 nM.

Consider `O=C(c1cc(Cc2n[nH]c(=O)c3ccccc23)ccc1F)N1CCN(C(=O)C2CC2)CC1` [OLAPARIB], for which the Activity in the data set on CAPAN-1 [2] is 12.9%; in the data set on CAPAN-1 [4], 5.74%; in the data set with CAPAN-1 [5], 9.82%; in the data set with CAPAN-1 [6], 19%; in the data set on CAPAN-1 [7], “Dde”; in the data set with MDA-MB-436 [9] it was “Dde”. Also, the values for the Activity in the data set on CAPAN-1 [11] and with CAPAN-1 [12] were 4.92% and 10.1%, respectively. The result with CAPAN-1 [3] was Active. Further, the IC50 in the data set with CAPAN-1 [8] is 530 nM; in the data set on MDA-MB-436 [10], 100 nM; in data set [13] it was 660 nM; in [14], 4650 nM.

For the compound `C=C1C(=O)OC2C[C@@]3(C)CCC=C(CN4CCN(C(=O)c5cc(Cc6n[nH]c(=O)c7ccccc67)ccc5F)CC4)C3=CC12` (some centres not stated), the IC50 in data set [1] worked out at 170 nM.

With `C[C@H]1CCC[C@]2(C)CC3OC(=O)C(CNCC(=O)N4CCN(C(=O)c5cc(Cc6n[nH]c(=O)c7ccccc67)ccc5F)CC4)C3C=C12` (some centres not stated), the IC50 in data set [1] worked out at 25.5 nM.

Regarding `C=C1C(=O)OC2C[C@@]3(C)CCC=C(COC(=O)C4CN(C(=O)c5cc(Cc6n[nH]c(=O)c7ccccc67)ccc5F)C4)C3=CC12` (some centres not stated), the IC50 in data set [1] came to 279 nM.

Turning to `C=C1C(=O)OC2C[C@@]3(C)CCC=C(COC(=O)CC4CCCN(C(=O)c5cc(Cc6n[nH]c(=O)c7ccccc67)ccc5F)C4)C3=CC12` (some centres not stated), the IC50 in [1] is 65.2 nM.

For the compound `C=C1C(=O)OC2C[C@@]3(C)CCC=C(COC(=O)CCN(C)C(=O)c4cc(Cc5n[nH]c(=O)c6ccccc56)ccc4F)C3=CC12` (some centres not stated), the IC50 in the data set on CAPAN-1 [8] stood at 1280 nM; in the data set on MDA-MB-436 [10] it was 2190 nM; in data set [1], 2.18 nM; in [13], 900 nM; in data set [14], 1210 nM.

For the compound `C[C@H]1CCC[C@]2(C)CC3OC(=O)C(CN4CCN(C(=O)c5cc(Cc6n[nH]c(=O)c7ccccc67)ccc5F)CC4)C3C=C12` (some centres not stated), the IC50 in data set [1] turned out to be 136 nM.

Turning to `C[C@H]1CCC[C@]2(C)CC3OC(=O)C(CNCCC(=O)N4CCN(C(=O)c5cc(Cc6n[nH]c(=O)c7ccccc67)ccc5F)CC4)C3C=C12` (some centres not stated), the IC50 in data set [1] came out at 15.5 nM.

Take `C[C@H]1CCC[C@]2(C)CC3OC(=O)C(CN(C)CCC(=O)N4CCN(C(=O)c5cc(Cc6n[nH]c(=O)c7ccccc67)ccc5F)CC4)C3C=C12` (some centres not stated): in data set [1], the half-inhibitory concentration (IC50) stood at 43.9 nM.

For `C=C1C(=O)OC2C[C@@]3(C)CCC=C(COC(=O)c4cc(Cc5n[nH]c(=O)c6ccccc56)ccc4F)C3=CC12` (some centres not stated), in [1], the IC50 worked out at 2600 nM.

On to `C[C@H]1CCC[C@]2(C)CC3OC(=O)C(CNCCOCCOCCOCC(=O)N4CCN(C(=O)c5cc(Cc6n[nH]c(=O)c7ccccc67)ccc5F)CC4)C3C=C12` (some centres not stated), for which the IC50 in data set [1] turned out to be 73.4 nM.

As to `C[C@H]1CCC[C@]2(C)CC3OC(=O)C(CN(C)CCCC(=O)N4CCN(C(=O)c5cc(Cc6n[nH]c(=O)c7ccccc67)ccc5F)CC4)C3C=C12` (some centres not stated), the IC50 in data set [1] was 43 nM.

`C=C1C(=O)O[C@@H]2C[C@@]3(C)CCC[C@H](C)C3=C[C@H]12` [HELENINE]: in data set [1], the IC50 was above 10000 nM.

In the case of `C=C1C(=O)OC2C[C@@]3(C)CCC=C(COC(=O)CCNC(=O)c4cc(Cc5n[nH]c(=O)c6ccccc56)ccc4F)C3=CC12` (some centres not stated), the IC50 in [1] was 134 nM.

As to `C[C@]12CCC=C(CO)C1=CC1C(C2)OC(=O)C1CNCCCCCCCC(=O)N1CCN(C(=O)c2cc(Cc3n[nH]c(=O)c4ccccc34)ccc2F)CC1` (some centres not stated), the half-inhibitory concentration (IC50) in data set [1] worked out at 422 nM.

For `C=C1C(=O)OC2C[C@@]3(C)CCC=C(COC(=O)COCCOCCNC(=O)c4cc(Cc5n[nH]c(=O)c6ccccc56)ccc4F)C3=CC12` (some centres not stated), the IC50 in data set [1] amounted to 38.6 nM.

Consider `C[C@H]1CCC[C@]2(C)CC3OC(=O)C(CNOCC(=O)N4CCN(C(=O)c5cc(Cc6n[nH]c(=O)c7ccccc67)ccc5F)CC4)C3C=C12` (some centres not stated), for which, in data set [1], the IC50 was found to be 19.7 nM.

`C[C@]12CCC=C(CO)C1=CC1C(C2)OC(=O)C1CN1CCN(C(=O)c2cc(Cc3n[nH]c(=O)c4ccccc34)ccc2F)CC1` (some centres not stated): the IC50 in data set [1] came out at 94.9 nM.

As for `C[C@]12CCC=C(C=O)C1=CC1C(C2)OC(=O)C1CNCCOCCOCC(=O)N1CCN(C(=O)c2cc(Cc3n[nH]c(=O)c4ccccc34)ccc2F)CC1` (some centres not stated), the IC50 in data set [1] turned out to be 88.4 nM.

For `C=C1C(=O)OC2C[C@@]3(C)CCC=C(COC(=O)CC4CCN(C(=O)c5cc(Cc6n[nH]c(=O)c7ccccc67)ccc5F)CC4)C3=CC12` (some centres not stated), the IC50 in [1] turned out to be 69.9 nM.

As for `C=C1C(=O)OC2C[C@@]3(C)CCC=C(COC(=O)CCCC4CCN(C(=O)c5cc(Cc6n[nH]c(=O)c7ccccc67)ccc5F)CC4)C3=CC12` (some centres not stated), the IC50 in data set [1] is 129 nM.

As for `C[C@]12CCC=C(CO)C1=CC1C(C2)OC(=O)C1CNCCOCCOCC(=O)N1CCN(C(=O)c2cc(Cc3n[nH]c(=O)c4ccccc34)ccc2F)CC1` (some centres not stated), the Activity was 16.5% in the data set with CAPAN-1 [2]; 9.68% with CAPAN-1 [4]; 12.5% with CAPAN-1 [5]; 33.5% in the data set with CAPAN-1 [6]; “Dde” with CAPAN-1 [7]; “Dde” in the data set on MDA-MB-436 [9]. The results for the Activity with CAPAN-1 [11], in the data set with CAPAN-1 [12] and in the data set with CAPAN-1 [19] were 6.64%, 12.6% and “Dde”, respectively. For the same compound, the outcome in the data set on CAPAN-1 [3], with MDA-MB-436 [15] and in the data set on CAPAN-1 [18] was Active. The IC50 at 7 days in [16] turned out to be 10100 nM; in data set [17], 12000 nM. Besides, the IC50 with CAPAN-1 [8] turned out to be 750 nM; with MDA-MB-436 [10] it was 190 nM; in [1], 5.91 nM; in data set [13], 410 nM; in [14] it was 2570 nM.

For `C[C@H]1CCC[C@]2(C)CC3OC(=O)C(CNCCCC(=O)N4CCN(C(=O)c5cc(Cc6n[nH]c(=O)c7ccccc67)ccc5F)CC4)C3C=C12` (some centres not stated), the IC50 stood at 990 nM in the data set on CAPAN-1 [8]; 200 nM in the data set on MDA-MB-436 [10]; 8.33 nM in data set [1]; 1120 nM in data set [13]; 2250 nM in data set [14].

Regarding `C[C@H]1CCC[C@]2(C)CC3OC(=O)C(CNCCCCCCCC(=O)N4CCN(C(=O)c5cc(Cc6n[nH]c(=O)c7ccccc67)ccc5F)CC4)C3C=C12` (some centres not stated), the Activity with CAPAN-1 [2] was 13.9%; in the data set with CAPAN-1 [4], 7.21%; in the data set on CAPAN-1 [5] it was 35.4%; in the data set on CAPAN-1 [6], 58.2%; in the data set with CAPAN-1 [7] it was “Dde”; with MDA-MB-436 [9], “Dde”. Further, the Activity in the data set with CAPAN-1 [11] is 5.52%; in the data set on CAPAN-1 [12], 14.4%; with CAPAN-1 [19], “Dde”. The outcome with CAPAN-1 [3], with MDA-MB-436 [15] and in the data set on CAPAN-1 [18] was Active. The IC50 at 7 days in [16] was 11700 nM; in data set [17] it was 11800 nM. Besides, the IC50 in the data set on CAPAN-1 [8] amounted to 870 nM; in the data set on MDA-MB-436 [10] it was 190 nM; in data set [1] it was 2.99 nM; in [13], 270 nM; in data set [14] it was 1430 nM.

Take `C[C@H]1CCC[C@]2(C)CC3OC(=O)C(CN(C)CC(=O)N4CCN(C(=O)c5cc(Cc6n[nH]c(=O)c7ccccc67)ccc5F)CC4)C3C=C12` (some centres not stated): the IC50 in data set [1] amounted to 20.3 nM.
